Experimental data taken from US4115585A, “Esters of 1-(p-hydroxyphenyl)-2-(1'-methyl-2'-phenoxyethylamino)-1-propanol” (Instituto Luso Farmaco d'Italia S.r.l., priority 1976, dated 1978).

Columns and labels:
[1] = Hypotensive activity (variation in pressure 1 to 2 days after insertion of a catheter in the abdominal artery, technique of Weeks and Jones); type: in vivo
[2] = in vivo; conditions: rat, po
Source text: According to the invention, esters I may be prepared by the esterification of the phenolic function of 1-(p-hydroxyphenyl)-2-(1'-methyl-2'-phenoxyethylamino)-1-propanol (II) with reactive derivatives like chlorides, bromides, and anhydrides of aliphatic acids of general formula III: [drawing 3] in which R1, R2, and R3 are as reported above. The esterification may be performed in an apolar solvent at reflux (such as benzene, toluene, or an analogous aromatic hydrocarbon) in the presence of an organic base like triethylamine, or in pyridine at room temperature.

Row | Compound | Hypotensive Activity Recovery to 50% ([1]; dose 5 mg/Kg os) | Hypotensive Activity Recovery to 75% ([1]; dose 5 mg/Kg os) | Hypotensive Activity maximal pressure decrease ([1]; dose 5 mg/Kg os) | Hypotensive Activity Recovery to 50% ([1]; dose 10 mg/Kg os) | Hypotensive Activity Recovery to 75% ([1]; dose 10 mg/Kg os) | Hypotensive Activity maximal pressure decrease ([1]; dose 10 mg/Kg os) | Hypotensive Activity Recovery to 50% ([1]; dose 20 mg/Kg os) | Hypotensive Activity Recovery to 75% ([1]; dose 20 mg/Kg os) | Hypotensive Activity maximal pressure decrease ([1]; dose 20 mg/Kg os) | Hypotensive Activity Recovery to 50% ([1]; dose 40 mg/Kg os) | Hypotensive Activity Recovery to 75% ([1]; dose 40 mg/Kg os) | Hypotensive Activity maximal pressure decrease ([1]; dose 40 mg/Kg os) | LD50 [2] | Hypotensive Activity Recovery to 50% ([1]; dose 80 mg/Kg os) | Hypotensive Activity Recovery to 75% ([1]; dose 80 mg/Kg os) | Hypotensive Activity maximal pressure decrease ([1]; dose 80 mg/Kg os)
1 | CC(COc1ccccc1)NC(C)C(O)c1ccc(O)cc1 (stereo not shown) [Isoxysuprine, 1-(p-hydroxyphenyl)-2-(1'-methyl-2'-phenoxyethylamino)-1-propanol] | 8.0 ± 3.0 min | 18.5 ± 6.5 min | 24.5±11.5 mm Hg | 79.8 ± 32.6 min | 105.0 ± 42.9 min | 25.3±3.6 mm Hg | 46.4 ± 13.8 min | 110.4 ± 29.4 min | 28.7±4.9 mm Hg | 34.0 ± 12.8 min | 197.5 ± 59.5 min | 21.8±2.1 mm Hg | – | – | – | –
2 | CC(COc1ccccc1)NC(C)C(O)c1ccc(OC(=O)C(C)(C)C)cc1 (stereo not drawn) [LR 693, 1-(p-α,α-dimethylpropionyloxyphenyl)-2-(1'-methyl-2'-phenoxyethylamino)-1-propanol] | – | – | – | – | – | – | 29.0 ± 1.0 min | 60.0 ± 20.0 min | 9.0±1.0 mm Hg | 115.7 ± 21.9 min | 311.7 ± 34.2 min | 21.3±4.1 mm Hg | > 5000 mg/kg | 180.2 ± 40.7 min | 384.8 ± 71.0 min | 18.8±8.0 mm Hg
